Common to all, as to format: cell-based, human
The subject of data set [1] is Hec-1-A. As to the kind of experiment: Nitric oxide (RNS) generation, DAF-FM diacetate probe. As to conditions: IC50 concentration, 24 h. The method, then:
(§1) Diaminofluorescein-FM diacetate (DAF-FM diacetate, Invitrogen, Carlsbad, CA, USA), is a widely employed cell permeant fluorescent reagent for the detection and quantification of reactive nitrogen species (RNS), particularly nitric oxide (NO). […] However, upon reaction with NO, it undergoes a transformation that yields a highly fluorescent benzotriazole derivative (excitation/emission maxima: λex = 495, λem = 515 nm).
(§2) The cells were seeded in black 96-well fluorometric microplates at a density of 10 × 10^3 cells per well. […] After incubation with the compounds, the medium was removed, the cell monolayer in the wells was washed twice with HBSS (140 mM NaCl, 5 mM KCl, 0.8 mM MgCl2, 1.8 mM CaCl2, 1 mM Na2HPO4, 10 mM HEPES and 1% glucose) and 50 μL of DAF-FM diacetate solution in HBSS was added to each well (final probe concentration 5 μmol/L). Cells were incubated with the probe for 30 min in the dark in an incubator (37 °C). After incubation, the probe was removed and replaced with fresh HBSS buffer and then incubated for an additional 30 min to allow for complete de-esterification of the intra cellular diacetates. After this time, the fluorescence was measured. The measurement was performed at the following excitation and fluorescence emission wavelengths: λex = 495 nm/λem = 515 nm. Fluorescence was measured on a Perkin-Elmer LS-5B spectrofluorometer (MA, USA). Fluorescence intensity values for control cells were arbitrarily set as 100%. The results are presented as percentages of control cells calculated on the basis of a comparison of the fluorescence intensity ratio of test samples and controls (100%) (fluorescence of samples was calculated as Δf in relation to the control).

Data set [2] relates to HCC38. The description is as above. The note with it: IC50 concentration, 24 h. Here is the method: as §1, §2
The test system of data set [3] is HCC38. As to the kind of experiment: Superoxide anion generation, DHE probe. The note with it: IC50 concentration, 24 h. Here is the method: (§3) The level of superoxide anion (O2^•−) was determined by microplate spectrofluorimetry with dihydroethidium (hydroethidine, DHE) (Life Technologies, Carlsbad, CA, USA), which is the most commonly used fluorogenic probe for monitoring the intracellular production of superoxide anion O2^•− [41]. […] Thanks to this shift, DHE can be used as a sensitive probe for cellular ROS. The reaction between superoxide and DHE generates a highly specific red fluorescent product, 2-hydroxyethidium (2-OH-E^+).
(§4) The cells were seeded in black 96-well fluorometric microplates at a density of 10 × 10^3 cells per well. […] After incubation, the medium was removed, the cell monolayer in the wells was washed twice with HBSS (140 mM NaCl, 5 mM KCl, 0.8 mM MgCl2, 1.8 mM CaCl2, 1 mM Na2HPO4, 10 mM HEPES and 1% glucose) and 50 μL of DHE solution in HBSS was added to each well (final probe concentration 5 μmol/L). Cells were incubated with the probe for 30 min in the dark in an incubator (37 °C), and then fluorescence was measured. The measurement was performed at the following excitation and fluorescence emission wavelengths: λex = 498 nm/λem = 582 nm. Fluorescence measurements were made on a Perkin-Elmer LS-5B spectrofluorometer (MA, USA). Fluorescence intensity values for control cells were arbitrarily set as 100%. The results are presented as percentages of control cell values, calculated relative to the fluorescence intensity of the controls (100%): sample fluorescence was calculated as Δf in relation to the controls.

The test system of another data set is RBCs. As to the kind of experiment: Erythrocyte morphology, phase contrast microscopy. The note with it: 100 µmol/L; 24 h, 37 °C. Here is the method:
The experiments on human blood were performed in accordance with Polish national guidelines, and the study protocols were approved by the Bioethics Committee of the Medical University of Lodz, Poland: approval no (RNN/104/20/KE). The blood samples were obtained from healthy donors at the Blood Donation Centre in Lodz. The procedure for […] for erythrotoxicity studies is given in a previous paper. The influence of the synthesized compounds, together with a reference compound on RBC membrane integrity, was performed by lysis assay, described elsewhere. Briefly, 2% RBC suspension in 0.9% NaCl was incubated at 37 °C for 24 h with the tested compounds at concentrations of 100 µmol/L, 50 µmol/L, 25 µmol/L, 10 µmol/L and 1 µmol/L. The samples were centrifuged at 3000 rpm for 10 min, and the absorbance of the supernatant was measured at 550 nm. The results are presented as a percentage of hemolysis where a sample containing 10 μL of 2.0% v/v Triton X-100 was regarded as a positive control contributing to 100% of hemolysis. A sample containing saline solution represented the spontaneous hemolysis of RBCs (control). The experiments were conducted using at least three different biological materials (n = 3). […] Additionally, erythrocyte morphology was evaluated using a phase contrast Opta-Tech inverted microscope at 400× magnification.

Data set [4] deals with Hec-1-A. In words: Superoxide anion generation, DHE probe. The note with it: IC50 concentration, 24 h. Here is the method: as §3, §4
The test system of data set [5] is HCC38. In words: Mitochondrial potential (ΔΨm), JC-1 method. As to conditions: IC50 concentration, 24 h. The text has this:
5,5,6,6-Tetrachloro-1,1,3,3-tetraethylbenzimidazolylcarbocyanine iodide (JC-1) is a cationic carbocyanine dye commonly used as a fluorescent probe to detect mitochondrial membrane depolarization. In living cells with an intact mitochondrial membrane, the lipophilic JC-1 penetrates the negatively charged mitochondrial matrix as a monomer. It then forms fluorescent aggregates with red-orange fluorescence (λex = 514 nm, λem = 590 nm). During depolarization of the mitochondrial membrane or in apoptotic cells, the concentration of JC-1 decreases, and the aggregates disintegrate into monomers emitting green fluorescence (λex = 514 nm, λem = 529 nm). The fluorescence ratio of aggregates (λem = 590 nm) and monomers (λem = 529 nm)—590 nm/529 nm—reflects the level of damage to the mitochondrial membrane.
The cells were seeded in black 96-well fluorometric microplates at a density of 10 × 10^3 cells per well. […] After incubation with the compounds, the medium was removed, the cell monolayer in the wells was washed twice with HBSS (140 mM NaCl, 5 mM KCl, 0.8 mM MgCl2, 1.8 mM CaCl2, 1 mM Na2HPO4, 10 mM HEPES and 1% glucose) and 50 μL of JC-1 solution in HBSS was added to each well (final probe concentration 5 μmol/L). Cells were incubated with the probe for 30 min in the dark in an incubator (37 °C). After incubation, the probe was removed and replaced with fresh HBSS buffer. Fluorescence measurements (Perkin-Elmer LS-5B spectrofluorometer, MA, USA) of JC-1 monomers and aggregates were made at the following excitation and emission wavelengths: λex = 514 nm, λem = 529 nm (monomers), λex = 514 nm, λem = 590 nm (aggregates). The results of the tested samples are presented as the percentage fluorescence ratio of JC-1 aggregates and JC-1 monomers relative to the fluorescence ratio of JC-1 aggregates and JC-1 monomers of the control, which was assumed to be 100%.
A positive control was formed of cells pre-incubated with 5 µmol/L carbonyl cyanide m-chlorophenylhydrazone (CCCP), a chemical inhibitor of oxidative phosphorylation that acts by uncoupling the protons flowing along the electrochemical gradient from phosphorylation.

As for `O=C1/C(=C/c2ccccc2)COc2ccccc21` [Compound 1], the entries for the “increase in nitric oxide production (DAF-FM)” value in the data set with Hec-1-A [1] and in the data set on HCC38 [2] were “approximately 20%” and “approximately 15%”, respectively. Also, the “increase in superoxide anion / ROS relative to control (DHE probe)” value with HCC38 [3] was “approximately 20%”.
In the case of `COc1cccc(/C=C2/C(=O)c3ccccc3OC2c2ccccc2)c1` (stereo not drawn) [Compound 3], the “RBC morphology (in words)” value with RBCs is reported as “appearance of single eryptocytes”. Also, the “rise of superoxide anion level compared to the control (DHE probe)” value in the data set on Hec-1-A [4] is “approximately 20%”.
Consider `O=C1/C(=C/c2ccccc2)C(c2ccccc2)Oc2ccccc21` (stereo not drawn) [Compound 5], for which the “change in mitochondrial potential (in words)” value in the data set with HCC38 [5] is on record as “strong hyperpolarization”.

Values taken from article PMC11312998, “Molecular Pro-Apoptotic Activities of Flavanone Derivatives in Cyclodextrin Complexes: New Implications for Anticancer Therapy” (International Journal of Molecular Sciences, 2024).
